{"source": "patent US20250082643A1", "about": "“COMBINATION THERAPY FOR PIK3CA-ASSOCIATED DISEASES OR DISORDERS” (Faeth Therapeutics, Inc., priority 2021, published 2025)", "key": {"CYP2C8": {"biological_target": "CYP2C8 (Homo sapiens, UniProt P10632)", "conditions": "cited from earlier work"}, "[1]": {"biological_target": "organic cation transporter (OCT) 1 (Homo sapiens, UniProt O15245)", "sequence (O15245 whole entry)": "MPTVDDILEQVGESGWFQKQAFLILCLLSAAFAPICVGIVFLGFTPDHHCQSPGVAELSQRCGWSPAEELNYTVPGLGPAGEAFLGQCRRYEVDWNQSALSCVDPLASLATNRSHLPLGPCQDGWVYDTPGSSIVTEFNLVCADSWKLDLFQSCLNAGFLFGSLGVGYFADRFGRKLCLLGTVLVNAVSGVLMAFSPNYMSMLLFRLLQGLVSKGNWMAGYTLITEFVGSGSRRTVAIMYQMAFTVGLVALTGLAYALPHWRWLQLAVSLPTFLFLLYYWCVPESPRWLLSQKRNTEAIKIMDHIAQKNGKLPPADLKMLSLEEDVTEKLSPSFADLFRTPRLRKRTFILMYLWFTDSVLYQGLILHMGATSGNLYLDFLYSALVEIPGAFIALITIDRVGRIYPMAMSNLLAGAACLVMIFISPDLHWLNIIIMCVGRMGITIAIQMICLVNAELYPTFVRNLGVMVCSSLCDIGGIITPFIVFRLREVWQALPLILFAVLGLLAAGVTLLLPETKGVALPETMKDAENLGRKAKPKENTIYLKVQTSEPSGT", "conditions": "cited from earlier work"}, "[2]": {"test_system": "downstream signaling of PI3K", "conditions": "cell lines with hyperactivation of the pathway; cited from earlier work"}, "CYP2C19": {"biological_target": "CYP2C19 (Homo sapiens, UniProt P33261)", "conditions": "cited from earlier work"}, "[3]": {"test_system": "human breast cancer cells harboring mutations in the PIK3CA gene", "conditions": "mouse xenograft, PIK3CA-mutated human breast cancer cells; cited from earlier work"}, "[4]": {"biological_target": "mammalian target of rapamycin (mTOR) (Homo sapiens, UniProt P42345)", "conditions": "relative to PI3Kα"}, "[5]": {"test_system": "other class I PI3K isoforms", "conditions": "relative to PI3Kα"}, "CYP2C9": {"biological_target": "CYP2C9 (Homo sapiens, UniProt P11712)", "sequence (P11712 whole entry)": "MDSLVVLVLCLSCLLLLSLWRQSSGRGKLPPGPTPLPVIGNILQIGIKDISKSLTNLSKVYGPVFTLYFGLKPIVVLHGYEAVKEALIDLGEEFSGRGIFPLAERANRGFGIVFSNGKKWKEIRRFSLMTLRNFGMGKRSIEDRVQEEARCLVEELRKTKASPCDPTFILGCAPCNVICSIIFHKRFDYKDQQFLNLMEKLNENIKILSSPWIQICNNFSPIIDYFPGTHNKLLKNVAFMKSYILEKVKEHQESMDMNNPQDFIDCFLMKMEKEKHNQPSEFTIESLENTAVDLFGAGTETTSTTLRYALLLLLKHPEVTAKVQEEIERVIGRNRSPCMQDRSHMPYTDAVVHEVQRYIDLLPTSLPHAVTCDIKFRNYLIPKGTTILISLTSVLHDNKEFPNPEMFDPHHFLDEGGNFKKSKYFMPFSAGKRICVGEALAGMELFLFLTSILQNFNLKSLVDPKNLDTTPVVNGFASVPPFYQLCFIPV", "conditions": "cited from earlier work"}, "a range of cell lines": {"test_system": "a range of cell lines", "conditions": "cited from earlier work"}, "CYP2B6 [6]": {"test_system": "CYP2B6", "conditions": "cited from earlier work"}, "[7]": {"conditions": "in vitro metabolism, across test species; cited from earlier work"}, "PI3Kα": {"biological_target": "PI3Kα (Homo sapiens, UniProt P42336)", "sequence (P42336 whole entry)": "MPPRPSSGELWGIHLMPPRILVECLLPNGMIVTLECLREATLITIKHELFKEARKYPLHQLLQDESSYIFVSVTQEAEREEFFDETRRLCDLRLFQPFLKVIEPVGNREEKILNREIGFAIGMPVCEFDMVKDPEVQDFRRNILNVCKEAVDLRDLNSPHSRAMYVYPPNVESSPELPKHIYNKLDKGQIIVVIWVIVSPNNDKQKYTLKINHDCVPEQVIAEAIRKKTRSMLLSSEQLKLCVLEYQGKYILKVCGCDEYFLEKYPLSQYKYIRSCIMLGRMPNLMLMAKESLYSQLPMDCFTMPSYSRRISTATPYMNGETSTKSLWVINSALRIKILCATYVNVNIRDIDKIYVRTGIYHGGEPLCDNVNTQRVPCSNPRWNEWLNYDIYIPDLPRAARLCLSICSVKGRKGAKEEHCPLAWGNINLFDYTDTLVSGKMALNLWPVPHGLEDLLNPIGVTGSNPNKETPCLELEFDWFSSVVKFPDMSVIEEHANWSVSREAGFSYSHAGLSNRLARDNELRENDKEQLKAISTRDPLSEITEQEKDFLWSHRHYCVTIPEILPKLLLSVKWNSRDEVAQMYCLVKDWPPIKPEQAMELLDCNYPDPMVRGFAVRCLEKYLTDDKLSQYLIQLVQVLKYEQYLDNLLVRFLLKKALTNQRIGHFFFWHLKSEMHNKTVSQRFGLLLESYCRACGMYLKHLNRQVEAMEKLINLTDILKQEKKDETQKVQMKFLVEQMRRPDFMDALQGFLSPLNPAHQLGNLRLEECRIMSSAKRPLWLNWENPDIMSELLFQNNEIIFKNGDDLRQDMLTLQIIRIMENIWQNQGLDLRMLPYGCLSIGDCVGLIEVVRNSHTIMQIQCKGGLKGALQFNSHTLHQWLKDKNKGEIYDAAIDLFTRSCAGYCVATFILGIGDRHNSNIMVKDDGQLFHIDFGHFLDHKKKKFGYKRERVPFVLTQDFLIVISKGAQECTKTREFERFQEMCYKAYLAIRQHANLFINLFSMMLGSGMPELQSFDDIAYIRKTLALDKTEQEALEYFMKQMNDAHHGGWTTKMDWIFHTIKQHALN", "sequence (P27986 whole entry partner)": "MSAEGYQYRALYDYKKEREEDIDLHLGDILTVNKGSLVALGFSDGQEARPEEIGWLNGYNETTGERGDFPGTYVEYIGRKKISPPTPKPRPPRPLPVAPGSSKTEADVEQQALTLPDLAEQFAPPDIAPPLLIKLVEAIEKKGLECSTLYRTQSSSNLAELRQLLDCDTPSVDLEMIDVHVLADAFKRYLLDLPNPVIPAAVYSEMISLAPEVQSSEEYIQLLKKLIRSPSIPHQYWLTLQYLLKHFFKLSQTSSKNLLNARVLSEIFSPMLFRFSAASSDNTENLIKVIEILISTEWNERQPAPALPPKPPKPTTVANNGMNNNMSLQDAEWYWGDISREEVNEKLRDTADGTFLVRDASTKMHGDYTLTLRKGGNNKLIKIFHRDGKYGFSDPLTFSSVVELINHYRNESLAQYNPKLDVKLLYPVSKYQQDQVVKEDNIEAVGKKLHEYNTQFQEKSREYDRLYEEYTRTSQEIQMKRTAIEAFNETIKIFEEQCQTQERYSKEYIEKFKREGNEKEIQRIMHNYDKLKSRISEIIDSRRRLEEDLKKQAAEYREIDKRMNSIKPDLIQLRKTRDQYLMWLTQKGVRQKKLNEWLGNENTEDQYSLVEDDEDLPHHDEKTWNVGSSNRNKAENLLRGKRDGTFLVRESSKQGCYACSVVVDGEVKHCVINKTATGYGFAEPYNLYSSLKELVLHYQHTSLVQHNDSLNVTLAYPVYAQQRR", "conditions": "biochemical assays; read-out: half maximal inhibitory concentration (IC50); cited from earlier work"}, "CYP3A4": {"biological_target": "CYP3A4 (Homo sapiens, UniProt P08684)", "sequence (P08684 whole entry)": "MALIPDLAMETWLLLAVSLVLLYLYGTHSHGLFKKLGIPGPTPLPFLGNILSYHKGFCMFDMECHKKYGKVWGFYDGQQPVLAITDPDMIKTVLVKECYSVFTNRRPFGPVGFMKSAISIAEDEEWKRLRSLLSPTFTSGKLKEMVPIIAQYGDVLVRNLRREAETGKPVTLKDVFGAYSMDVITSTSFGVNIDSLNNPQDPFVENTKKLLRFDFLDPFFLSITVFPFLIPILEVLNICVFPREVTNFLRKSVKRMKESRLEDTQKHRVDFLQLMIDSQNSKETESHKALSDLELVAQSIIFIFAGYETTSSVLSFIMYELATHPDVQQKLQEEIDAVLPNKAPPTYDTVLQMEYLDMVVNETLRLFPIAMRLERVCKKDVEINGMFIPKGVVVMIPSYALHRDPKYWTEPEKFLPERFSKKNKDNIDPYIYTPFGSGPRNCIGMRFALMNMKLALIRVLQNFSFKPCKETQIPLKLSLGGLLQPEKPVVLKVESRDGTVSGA", "conditions": "normalized for liver content; cited from earlier work"}, "CYP3A4/5 [8]": {"test_system": "CYP3A4/5", "conditions": "cited from earlier work"}, "[9]": {"test_system": "solid tumors with PIK3CA mutations with or without PTEN loss", "conditions": "human, in vivo", "text": "The primary objective of the study is to evaluate the safety, feasibility, and pharmacokinetic impact of intrasubject modulated dosing for serabelisib when co-administered with a study ISD in a pilot cohort of subjects with solid tumors with PIK3CA mutations with or without PTEN loss. […] For the expansion cohort, nab-paclitaxel will also be administered with serabelisib when co-administered with a study ISD. […] FIG. 4 depicts a representation of the study cohorts of the clinical trial using serabelisib in combination with an insulin suppressing diet and nab-paclitaxel in subjects with cancer.\nCohort 1a (Dose Modification): The primary objective of the study is to evaluate the safety, compliance, and pharmacokinetic (PK) impact of intrasubject modulated dosing for serabelisib in combination with a Study ISD in a pilot cohort. […] Endpoints include: ORR, defined as the proportion of subjects who have best overall response of either CR or PR, as determined by each site; Progression free survival (PFS), defined as the time from date of first dose of Study Drug (Visit 1) to the date of first evidence of disease progression or death from any cause (whichever occurs first); Overall survival (OS) and landmark survival; Duration of response (DoR); and Disease control rate (DCR; CR+PR+stable disease [SD]). […]"}, "[10]": {"conditions": "cited from earlier work"}, "CYP2B6 [11]": {"biological_target": "CYP2B6 (Homo sapiens, UniProt P20813)", "sequence (P20813 whole entry)": "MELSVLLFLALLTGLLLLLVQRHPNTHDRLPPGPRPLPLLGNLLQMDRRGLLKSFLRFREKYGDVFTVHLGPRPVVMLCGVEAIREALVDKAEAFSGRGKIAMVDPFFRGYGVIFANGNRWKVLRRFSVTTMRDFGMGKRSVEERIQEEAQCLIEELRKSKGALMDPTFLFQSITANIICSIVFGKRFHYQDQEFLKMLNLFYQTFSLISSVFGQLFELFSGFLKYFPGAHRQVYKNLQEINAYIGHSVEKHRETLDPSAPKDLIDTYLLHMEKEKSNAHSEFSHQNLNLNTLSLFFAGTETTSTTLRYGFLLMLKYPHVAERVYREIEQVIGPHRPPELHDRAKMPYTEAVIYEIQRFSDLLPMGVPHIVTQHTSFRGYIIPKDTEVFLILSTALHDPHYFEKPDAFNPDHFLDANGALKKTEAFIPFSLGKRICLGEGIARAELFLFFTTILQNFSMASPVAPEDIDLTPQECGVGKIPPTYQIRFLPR", "conditions": "cited from earlier work"}, "[12]": {"test_system": "renal cell carcinoma xenograft with mutations in the PTEN gene", "conditions": "cited from earlier work"}, "[13]": {"biological_target": "breast cancer resistance protein (BCRP) (Homo sapiens, UniProt Q9UNQ0)", "sequence (Q9UNQ0 whole entry)": "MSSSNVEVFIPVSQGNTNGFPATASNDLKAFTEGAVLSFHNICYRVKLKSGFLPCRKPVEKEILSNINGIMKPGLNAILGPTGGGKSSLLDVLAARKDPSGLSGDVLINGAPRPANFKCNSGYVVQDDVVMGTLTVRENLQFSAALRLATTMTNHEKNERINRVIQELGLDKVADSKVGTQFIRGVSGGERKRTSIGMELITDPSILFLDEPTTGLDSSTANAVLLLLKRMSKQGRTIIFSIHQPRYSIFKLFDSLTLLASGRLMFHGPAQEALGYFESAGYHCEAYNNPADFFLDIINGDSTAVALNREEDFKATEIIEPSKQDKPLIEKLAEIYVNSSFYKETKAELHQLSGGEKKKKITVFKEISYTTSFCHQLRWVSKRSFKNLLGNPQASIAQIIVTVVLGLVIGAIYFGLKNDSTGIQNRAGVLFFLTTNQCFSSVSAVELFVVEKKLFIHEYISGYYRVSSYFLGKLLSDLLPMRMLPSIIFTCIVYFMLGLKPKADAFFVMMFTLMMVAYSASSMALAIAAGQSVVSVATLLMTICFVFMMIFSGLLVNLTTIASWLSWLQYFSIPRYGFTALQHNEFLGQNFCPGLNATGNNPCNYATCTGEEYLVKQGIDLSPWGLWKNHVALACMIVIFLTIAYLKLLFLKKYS", "conditions": "cited from earlier work"}, "OCT2": {"biological_target": "OCT2 (Homo sapiens, UniProt O15244)", "sequence (O15244 whole entry)": "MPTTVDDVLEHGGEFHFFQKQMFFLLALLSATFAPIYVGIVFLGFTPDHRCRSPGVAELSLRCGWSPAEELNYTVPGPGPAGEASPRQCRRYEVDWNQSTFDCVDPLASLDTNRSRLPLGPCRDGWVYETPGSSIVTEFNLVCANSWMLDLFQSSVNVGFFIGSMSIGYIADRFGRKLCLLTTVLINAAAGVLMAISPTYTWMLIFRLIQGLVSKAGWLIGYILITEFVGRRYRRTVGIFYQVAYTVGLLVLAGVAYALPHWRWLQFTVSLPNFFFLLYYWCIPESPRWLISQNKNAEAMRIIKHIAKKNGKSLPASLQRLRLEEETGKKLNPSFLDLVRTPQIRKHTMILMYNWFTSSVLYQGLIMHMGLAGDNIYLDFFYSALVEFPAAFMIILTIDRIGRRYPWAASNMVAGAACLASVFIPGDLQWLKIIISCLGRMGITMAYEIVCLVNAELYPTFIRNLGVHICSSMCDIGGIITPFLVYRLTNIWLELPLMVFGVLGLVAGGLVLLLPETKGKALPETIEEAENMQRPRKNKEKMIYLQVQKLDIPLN", "conditions": "cited from earlier work"}, "CYP1A2 [14]": {"biological_target": "CYP1A2 (Homo sapiens, UniProt P05177)", "conditions": "cited from earlier work"}, "CYP1A2 [15]": {"test_system": "CYP1A2", "conditions": "cited from earlier work"}, "solid tumors": {"test_system": "solid tumors", "conditions": "cited from earlier work"}, "CYP3A4/5 [16]": {"test_system": "CYP3A4/5", "conditions": "cited from earlier work", "remark": "listed apart in the source"}, "CYP2D6": {"biological_target": "CYP2D6 (Homo sapiens, UniProt P10635)", "conditions": "cited from earlier work"}, "[17]": {"conditions": "oral administration, various animal species"}}}
{"compound": "Nc1nc2cc(-c3ccc4ncc(C(=O)N5CCOCC5)n4c3)ccc2o1", "note": "[serabelisib, 6-(2-Aminobenzo[d]oxazol-5-yl) imidazo[1,2-a]pyridine-3-yl morpholino methanone]", "values": [{"measurement": "inhibition of CYP2C8", "setting": "CYP2C8", "result": "low potential for inhibition"}, {"measurement": "inhibition of OCT1", "setting": "[1]", "result": "inhibitor"}, {"measurement": "downstream signaling of PI3K", "setting": "[2]", "result": "blocks downstream signaling of PI3K"}, {"measurement": "inhibition of CYP2C19", "setting": "CYP2C19", "result": "low potential for inhibition"}, {"measurement": "tumor growth inhibition", "setting": "[3]", "result": "strong tumor growth inhibition"}, {"measurement": "selectivity over mTOR", "setting": "[4]", "result": "> 50", "unit": "fold"}, {"measurement": "selectivity over other class I PI3K isoforms", "setting": "[5]", "result": "> 50", "unit": "fold"}, {"measurement": "inhibition of CYP2C9", "setting": "CYP2C9", "result": "low potential for inhibition"}, {"measurement": "antiproliferative activity", "setting": "a range of cell lines", "result": "demonstrates antiproliferative activity"}, {"measurement": "induction of CYP2B6 activity", "setting": "CYP2B6 [6]", "result": "does not induce"}, {"measurement": "unique human metabolite", "setting": "[7]", "result": "no unique human metabolite was identified"}, {"measurement": "IC50", "setting": "PI3Kα", "result": 20, "unit": "nM"}, {"measurement": "share of metabolism by CYP3A4", "setting": "CYP3A4", "result": 72, "unit": "%"}, {"measurement": "induction of CYP3A4/5 activity", "setting": "CYP3A4/5 [8]", "result": "does not induce"}, {"measurement": "drug accumulation between dosing cycles", "setting": "[9]", "result": "No meaningful drug accumulation"}, {"measurement": "tissue distribution of radiolabeled drug", "setting": "[10]; following oral dosing", "result": "well distributed to all tissues"}, {"measurement": "absorption", "setting": "[10]; [17]", "result": "rapid absorption"}, {"measurement": "bioavailability", "setting": "[10]; [17]", "result": "high bioavailable"}, {"measurement": "excretion", "setting": "[10]; urine and feces", "result": "majority of the drug is excreted in urine and feces as the parent compound"}, {"measurement": "inhibition of CYP2B6", "setting": "CYP2B6 [11]", "result": "low potential for inhibition"}, {"measurement": "efficacy on xenograft", "setting": "[12]", "result": "no efficacy"}, {"measurement": "inhibition of BCRP", "setting": "[13]", "result": "inhibitor"}, {"measurement": "inhibition of OCT2", "setting": "OCT2", "result": "inhibitor"}, {"measurement": "inhibition of CYP1A2", "setting": "CYP1A2 [14]", "result": "low potential for inhibition"}, {"measurement": "induction of CYP1A2 activity", "setting": "CYP1A2 [15]", "result": "does not induce"}, {"measurement": "subjects with related serious adverse events (SAEs)", "setting": "solid tumors; 3CDW cohorts", "result": 7, "unit": "%"}, {"measurement": "MTD", "setting": "solid tumors; Phase 1 study, intermittent 3CDW schedule", "result": 900, "unit": "mg"}, {"measurement": "related adverse event: decreased appetite", "setting": "solid tumors; across all doses and regimens", "result": 23, "unit": "%"}, {"measurement": "related adverse event: diarrhea", "setting": "solid tumors; across all doses and regimens", "result": 31, "unit": "%"}, {"measurement": "related adverse event: hyperglycemia", "setting": "solid tumors; across all doses and regimens", "result": 37, "unit": "%"}, {"measurement": "related adverse event: increased aspartate aminotransferase (AST)", "setting": "solid tumors; across all doses and regimens", "result": 20, "unit": "%"}, {"measurement": "related adverse event: nausea", "setting": "solid tumors; across all doses and regimens", "result": 50, "unit": "%"}, {"measurement": "related adverse event: vomiting", "setting": "solid tumors; across all doses and regimens", "result": 38, "unit": "%"}, {"measurement": "subjects with gastrointestinal dose-limiting toxicity (DLT)", "setting": "solid tumors; dose escalated from 900 mg to 1200 mg, 3CDW regimen", "result": "2 of 3"}, {"measurement": "PK profile", "setting": "solid tumors; human, in vivo", "result": "linear PK profile"}, {"measurement": "cases of drug-induced liver injury (DILI)", "setting": "solid tumors; prior serabelisib clinical trials", "result": "no cases of DILI have been reported"}, {"measurement": "doses giving biologically active exposures", "setting": "solid tumors; results from skin biopsy samples", "result": "> 200", "unit": "mg"}, {"measurement": "inhibition of CYP3A4/5", "setting": "CYP3A4/5 [16]", "result": "low potential for inhibition"}, {"measurement": "inhibition of CYP2D6", "setting": "CYP2D6", "result": "low potential for inhibition"}]}
